± gives the expanded uncertainty stated by the source.
Settings: 283.15 K, Liquid, Vibrating tube method

CCCCCC(=O)OCC(COC(=O)CCCCC)(COC(=O)CCCCC)COC(=O)CCCCC [pentaerythritol tetrahexanoate]
Settings	mass density [kg/m3]
28190 kPa	1019.8 ± 1.2
28207 kPa	1019.9 ± 1.2
28225 kPa	1019.7 ± 1.2
28245 kPa	1019.7 ± 1.2
28262 kPa	1019.7 ± 1.2
28280 kPa	1019.8 ± 1.2
28297 kPa	1019.7 ± 1.2
28314 kPa	1019.7 ± 1.2
28334 kPa	1019.8 ± 1.2
28351 kPa	1019.7 ± 1.2
28371 kPa	1019.8 ± 1.2
28388 kPa	1019.7 ± 1.2
28405 kPa	1019.9 ± 1.2
28422 kPa	1019.7 ± 1.2
28443 kPa	1019.8 ± 1.2
28460 kPa	1019.8 ± 1.2
28478 kPa	1019.8 ± 1.2
28500 kPa	1019.8 ± 1.2
28517 kPa	1019.8 ± 1.2
28535 kPa	1019.9 ± 1.2
28552 kPa	1019.9 ± 1.2
28570 kPa	1019.9 ± 1.2
28591 kPa	1019.9 ± 1.2
28608 kPa	1020 ± 1.2
28629 kPa	1019.9 ± 1.2
28646 kPa	1019.9 ± 1.2
28664 kPa	1019.9 ± 1.2
28686 kPa	1019.9 ± 1.2
28703 kPa	1020 ± 1.2
28722 kPa	1019.9 ± 1.2
28744 kPa	1019.9 ± 1.2
28763 kPa	1019.9 ± 1.2
28781 kPa	1019.9 ± 1.2
28800 kPa	1020 ± 1.2
28815 kPa	1020.1 ± 1.2
28830 kPa	1020.1 ± 1.2
28848 kPa	1020 ± 1.2
28863 kPa	1020 ± 1.2
28878 kPa	1020.2 ± 1.2
28896 kPa	1020 ± 1.2
28911 kPa	1020 ± 1.2
28926 kPa	1020 ± 1.2
28944 kPa	1020.1 ± 1.2
28958 kPa	1020.1 ± 1.2
28973 kPa	1020 ± 1.2
28990 kPa	1020.2 ± 1.2
29004 kPa	1020.2 ± 1.2
29018 kPa	1020.1 ± 1.2
29035 kPa	1020 ± 1.2
29050 kPa	1020.2 ± 1.2
29064 kPa	1020.1 ± 1.2
29081 kPa	1020.1 ± 1.2
29096 kPa	1020.3 ± 1.2
29110 kPa	1020.2 ± 1.2
29127 kPa	1020.2 ± 1.2
29142 kPa	1020.1 ± 1.3
29156 kPa	1020.1 ± 1.2
29171 kPa	1020.1 ± 1.2
29188 kPa	1020.2 ± 1.2
29202 kPa	1020.1 ± 1.2
29219 kPa	1020.3 ± 1.2
29234 kPa	1020.3 ± 1.2
29248 kPa	1020.3 ± 1.2
29263 kPa	1020.3 ± 1.2
29280 kPa	1020.2 ± 1.2
29295 kPa	1020.3 ± 1.2
29313 kPa	1020.3 ± 1.2
29327 kPa	1020.3 ± 1.2
29342 kPa	1020.3 ± 1.2
29357 kPa	1020.3 ± 1.2
29375 kPa	1020.3 ± 1.2
29389 kPa	1020.4 ± 1.2
29407 kPa	1020.3 ± 1.2
29422 kPa	1020.4 ± 1.2
29436 kPa	1020.2 ± 1.2
29451 kPa	1020.4 ± 1.2
29469 kPa	1020.3 ± 1.2
29484 kPa	1020.4 ± 1.2
29499 kPa	1020.3 ± 1.2
29516 kPa	1020.3 ± 1.2
29531 kPa	1020.5 ± 1.2
29547 kPa	1020.3 ± 1.2
29564 kPa	1020.4 ± 1.2
29579 kPa	1020.4 ± 1.2
29594 kPa	1020.4 ± 1.2
29609 kPa	1020.4 ± 1.2
29627 kPa	1020.4 ± 1.2
29642 kPa	1020.5 ± 1.2
29660 kPa	1020.5 ± 1.2
29675 kPa	1020.5 ± 1.2
29690 kPa	1020.6 ± 1.2
29708 kPa	1020.6 ± 1.2
29723 kPa	1020.4 ± 1.2
29738 kPa	1020.6 ± 1.2
29754 kPa	1020.5 ± 1.2
29770 kPa	1020.5 ± 1.2
29788 kPa	1020.5 ± 1.2
29803 kPa	1020.5 ± 1.2
29821 kPa	1020.5 ± 1.2
29837 kPa	1020.6 ± 1.2
29852 kPa	1020.6 ± 1.2
29867 kPa	1020.6 ± 1.2
29886 kPa	1020.6 ± 1.2
29901 kPa	1020.5 ± 1.2
29916 kPa	1020.5 ± 1.2
29935 kPa	1020.6 ± 1.2
29950 kPa	1020.6 ± 1.2
29967 kPa	1020.7 ± 1.2
29982 kPa	1020.5 ± 1.2
29998 kPa	1020.6 ± 1.2
30016 kPa	1020.5 ± 1.2
30032 kPa	1020.6 ± 1.2
30048 kPa	1020.6 ± 1.2
30066 kPa	1020.6 ± 1.2
30082 kPa	1020.6 ± 1.2
30097 kPa	1020.6 ± 1.2
30116 kPa	1020.6 ± 1.2
30131 kPa	1020.7 ± 1.2
30147 kPa	1020.7 ± 1.2
30163 kPa	1020.7 ± 1.2
30182 kPa	1020.7 ± 1.2
30198 kPa	1020.8 ± 1.2
30214 kPa	1020.7 ± 1.2
30232 kPa	1020.7 ± 1.2
30248 kPa	1020.8 ± 1.2
30264 kPa	1020.7 ± 1.2
30280 kPa	1020.7 ± 1.2
30298 kPa	1020.7 ± 1.2
30314 kPa	1020.9 ± 1.2
30330 kPa	1020.9 ± 1.2
30349 kPa	1020.8 ± 1.2
30364 kPa	1020.8 ± 1.2
30384 kPa	1020.9 ± 1.2
30400 kPa	1020.8 ± 1.2
30416 kPa	1020.9 ± 1.2
30431 kPa	1020.8 ± 1.2
30451 kPa	1020.8 ± 1.2
30466 kPa	1020.9 ± 1.2
30482 kPa	1020.9 ± 1.2
30502 kPa	1020.9 ± 1.2
30517 kPa	1020.9 ± 1.2
30536 kPa	1020.9 ± 1.2
30552 kPa	1020.9 ± 1.2
30568 kPa	1020.9 ± 1.2
30587 kPa	1021 ± 1.2
